# Measured values as given in patent publication US20020193587A1, “Penicillin crystal and process for producing the same” (priority 2000, published 2002).
# Test: Storage stability in sealed test tubes at room temperature for 1 year, purity determined by HPLC
# Type: physicochemical
# Details: 10 g in sealed test tube, stored at room temperature (5 to 35° C.) for 1 year, starting purity 100% (Examples 1, 2), 79% (Comparative Example 1), 93% (Comparative Example 2)
# Description: A test tube was charged with 10 g of each of the TAZB crystal of Example 1 (purity 100%), the TAZB crystal of Example 2 (purity 100%), the TAZB oily substance of Comparative Example 1 (purity 79%), and the TAZB amorphous powder of Comparative Example 2 (purity 93%). The test tubes were sealed and stored at room temperature (5 to 35° C.) for 1 year after which their purity was determined by HPLC.
row,purity after storage [%],Substance
1,52,"diphenylmethyl 2-methyl-2-triazolylmethylpenam-3-carboxylate 1,1-dioxide [Comparative Example 1]"
2,81,"diphenylmethyl 2-methyl-2-triazolylmethylpenam-3-carboxylate 1,1-dioxide [Comparative Example 2]"
3,99,"diphenylmethyl 2-methyl-2-triazolylmethylpenam-3-carboxylate 1,1-dioxide [Example 2]"
